Test [1] is described as follows: Inhibition of prostaglandin synthesis in bovine seminal vesicle microsomes using [14C]arachidonic acid. Type of test: functional, Bos taurus, Microsome.
The next test relates to Neutrophil. As to the kind of experiment: Inhibition of PAF-induced exocytosis in neutrophil by spectrophotometer. Type of test: functional, cell-based.

The record followed here is ChEMBL document CHEMBL1158275, “Isolation of two new antiinflammatory biflavanoids from Sarcophyte piriei” (J Nat Prod, 1996).

Take `COc1ccc2c(c1)c(CC(=O)O)c(C)n2C(=O)c1ccc(Cl)cc1` [INDOMETHACIN]: in test [1] (read-out: IC50), the IC50 (in general, the concentration that gives 50% inhibition) is 0.56 µM. As for `C[C@@H]1C(=O)O[C@H]2[C@H](O)[C@@]34[C@H]5C[C@@H](C(C)(C)C)[C@]36[C@@H](OC(=O)[C@@H]6O)O[C@@]4(C(=O)O5)[C@@]12O` [GINKOLIDE B], the IC50 in the test on Neutrophil was 80 µM. As to `CC(=O)Oc1ccccc1C(=O)O` [ASPIRIN], in test [1], the IC50 turned out to be 200 µg/mL.

With `O=C1C[C@H](c2ccc(O)c(O)c2)Oc2c1c(O)cc1c2[C@@H]2C[C@@](c3ccc(O)c(O)c3)(Oc3cc(O[C@@H]4O[C@H](CO)[C@@H](O)[C@H](O)[C@H]4O)cc(O)c32)O1` [DIINSININOL], the IC50 worked out at 9.2 µM in test [1] (read-out: IC50) and 49 µM in the test on Neutrophil. The matching figures for `O=C1C[C@H](c2ccc(O)cc2)Oc2c1c(O)cc1c2[C@@H]2C[C@@](c3ccc(O)c(O)c3)(Oc3cc(O[C@@H]4O[C@H](CO)[C@@H](O)[C@H](O)[C@H]4O)cc(O)c32)O1` [DIINSININ]: 13.1 µM and 39 µM.
